According to patent US20050113371A1, “Antifungal agent for topical use” (priority 2002, published 2005):
Structures can show the parent of a compound that is named as a salt. Where two headings read alike, the source gives them in different places.

Tests used:
[1] = tested on: Trichophyton mentagrophytes; experiment: Antifungal activity on Sabouraud agar medium, MIC and FIC index (Test Examples 1 and 2); assay type: cell-based; conditions: cultured 7 days
Experimental: (§1) Amorolfine hydrochloride and each specimen (hereinafter referred to as “medicine”) at a mass ratio of 1:1 were dissolved in dimethyl sulfoxide (DMSO). Two-fold dilution series were prepared with DMSO. In the determination of the antifungal activity, the medicine and the medium were mixed together at a ratio of 1:99.
(§2) Sabouraud agar medium (Eiken) was used as a susceptibility determination medium. A microbe suspension containing 10^6 spores/mL of Candida albicans or about 10^6 conidia/mL of ringworm fungus was prepared. 5 μl of the suspension was inoculated on the Sabouraud agar medium containing the medicine with a micro-planter (a product of Sakuma Seisakusho). Candida albicans was cultured for 2 days and the tinea was cultured for 7 days. […]

[2] = tested on: Trichophyton rubrum; experiment: as above; assay type: cell-based; conditions: cultured 7 days
Experimental: as §1, §2

[3] = tested on: Candida albicans; experiment: as above; assay type: cell-based; conditions: cultured 2 days
Experimental: as §1
Sabouraud agar medium (Eiken) was used as a susceptibility determination medium. A microbe suspension containing 10^6 spores/mL of Candida albicans or about 10^6 conidia/mL of ringworm fungus was prepared. 5 μl of the suspension was inoculated on the Sabouraud agar medium containing the medicine with a micro-planter (a product of Sakuma Seisakusho). Candida albicans was cultured for 2 days and the tinea was cultured for 7 days.
The effect obtained by the combination was judged on the basis of the following standards (FIC index): • >2: antagonism • 2>and 1<: additive action • 1>: potentiation
(1) Amorolfine hydrochloride and each specimen (hereinafter referred to as “medicine”) at a mass ratio of 100:1 to 1:100 were dissolved in dimethyl sulfoxide (DMSO). Two-fold dilution series were prepared with DMSO. In the determination of the antifungal activity, the medicine and the medium were mixed together at a ratio of 1:99.
(2) Amorolfine hydrochloride and each specimen (hereinafter referred to as “medicine”) at a mass ratio of 1:3 to 3:1 were dissolved in dimethyl sulfoxide (DMSO). Two-fold dilution series were prepared with DMSO. In the determination of the antifungal activity, the medicine and the medium were mixed together at a ratio of 1:99.
Sabouraud agar medium (Eiken) was used as a susceptibility determination medium. A microbe suspension containing 10^6 spores/mL of Candida albicans or about 10^6 conidia/mL of each of two kinds of ringworm fungus was prepared. 5 μl of the suspension was inoculated on the Sabouraud agar medium with a micro-planter (a product of Sakuma Seisakusho). Candida albicans was cultured for 2 days and the Tinea fungus was cultured for 7 days.

[4] = tested on: Trichophyton mentagrophytes TIMM 1189; experiment: Tinea infection model of guinea pigs, culture test (Test Example 3); assay type: in vivo; conditions: 0.75 mass % in polyethylene glycol 400 (combination 1:2), 0.1 mL once a day for 5 days from 3 days after inoculation; culture on 5th day after last application; 10 loci
Experimental: Amorolfine hydrochloride and each specimen (hereinafter referred to as “medicine”) at a mass ratio of 1:2 were dissolved in polyethylene glycol 400 to obtain a final concentration of 0.75% mass ratio. Each of amorolfine hydrochloride and the medicines was separately dissolved in polyethylene glycol 400 to obtain solutions having the final concentration of 0.75 mass %.
Male Hartley guinea pigs (Japan SLC Co., Ltd.; 6 weeks) were used. In the course of the test, they were kept separately from one another in an isolator (Negative rack, CLEA JAPAN, Inc.). They could freely have a solid food (G standard, Nihon Nosan Kogyo KK) and water.
Trichophyton mentagrophytes TIMM 1189 was cultured on slant Sabouraud glucose agar medium at 27° C. for 14 days. Then, sterilized saline containing 0.05% of Tween 80 was added thereto to obtain conidia. The resultant suspension was filtered through a cell strainer (FALCON Co., Ltd.) to remove large mycelian masses. The number of conidia was counted with hemocytometer. The conidia were diluted to 4×10^7/mL with sterilized saline containing 0.05% of Tween 80 to obtain the conidial suspension for inoculation.
The back of each guinea pig was shaved. Then, a circular inoculation part having a diameter of 2 cm was positioned on both sides of the spinal column. A gummed tape was applied thereto and then peeled. These steps was repeated three times, whereby the hair was pulled out of the skin in both parts and, at the same time, the top of the corneous layer of the skin was peeled off. The remaining hair was completely removed with tweezers. […]
When at least one of the 10 small pieces taken from one inoculated locus of the skin was the positive after the culture, the inoculated locus was judged to be positive. The ratio of positive loci after culture was calculated from the number of the cultured positive pieces in the total 10 inoculated loci in each experiment group.
The number of the cultured positive small pieces in the inoculated portion was scored as will be described below to determine the infection. […]

[5] = tested on: Trichophyton mentagrophytes; conditions: at a low concentration; cited from earlier work
[6] = tested on: Candida albicans; conditions: cited from earlier work
[7] = mice, cited from earlier work
[8] = rats, cited from earlier work
[9] = male and female rabbits, percutaneous; cited from earlier work
[10] = in vivo; cited from earlier work
[11] = rabbit, in vivo; cited from earlier work
[12] = Test Example 1, amorolfine hydrochloride + medicine at mass ratio 1:1

What does the source list for `CN(C/C=C/C#CC(C)(C)C)Cc1cccc2ccccc12` [terbinafine hydrochloride, (E)-N-(6,6-dimethyl-2-hepten-4-ynyl)-N-methyl-1-naphthalenemethylamine hydrochloride]?
FIC index obtained by the combination of amorolfine hydrochloride with another medicine [1, 12]: 0.52; MIC ([1]; Trichophyton mentagrophytes, 168 h, Test Example 2, geometric mean MIC of two strains, read-out: Minimum inhibitory concentration (MIC)): 0.011 µg/mL; FIC index obtained by the combination of amorolfine hydrochloride with another medicine [2, 12]: 0.75; MIC ([2]; Trichophyton rubrum, 168 h, Test Example 2, geometric mean MIC of two strains, read-out: Minimum inhibitory concentration (MIC)): 4 ng/mL; MIC ([3]; Candida albicans, 48 h, Test Example 2, geometric mean MIC of two strains, read-out: Minimum inhibitory concentration (MIC)): > 8 µg/mL; FIC index obtained by the combination of amorolfine hydrochloride with another medicine [3, 12]: 0.27; Minimum inhibitory concentration (MIC) ([3]; Test Example 2, geometric mean MIC of two strains, listed as T, hydrochloride): >8.0 µg/mL; rate of positive loci after culture [4]: 100%; effect on germinated conidium of Trichophyton mentagrophytes [5]: fungicidal effect; concentration that exhibits a fungistatic effect on the propagation of the yeast form [6]: at least 1 μg/mL; concentration that inhibits the conversion from yeast form to mycelial form [6]: at least 0.098 μg/mL; LD50 ([7]; intravenous injection, female): 377 mg/kg; LD50 ([7]; intravenous injection, male): 410 mg/kg; LD50 ([7]; oral, female): > 4000 mg/kg; LD50 ([7]; oral, male): 3570 mg/kg; LD50 ([7]; subcutaneous, male and female): > 2000 mg/kg; LD50 ([8]; intravenous injection, female): 206 mg/kg; LD50 ([8]; intravenous injection, male): 220 mg/kg; LD50 ([8]; oral, male and female): > 4000 mg/kg; LD50 ([8]; percutaneous, male and female): > 2000 mg/kg; LD50 ([8]; subcutaneous, male and female): > 2000 mg/kg; LD50 [9]: > 1500 mg/kg; increase in the body weight of dams [10]: suppression on the increase in the body weight of dams; influence on the reproduction and the growth of the embryos [10]: no influence was recognized; localized irritation [11]: a weak irritation or a light cumulative irritation
